#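 Assay format: 96-well plates, 48-hour exposure. Definition used: TGI = concentration required for complete inhibition of growth.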
# Legend:
# Experiment in all cases: NCI tumour cell line growth inhibition, 48 h
# 786-0 renal = test system: 786-0 renal
# A498 renal = test system: A498 renal
# A549 NSCLC = test system: A549 NSCLC
# ACHN renal = test system: ACHN renal
# BT-549 breast = test system: BT-549 breast
# CAKI-1 renal = test system: CAKI-1 renal
# CCRF-CEM leukemia = test system: CCRF-CEM leukemia
# COLO 205 colon = test system: COLO 205 colon
# DU-145 prostate = test system: DU-145 prostate
# EKVX NSCLC = test system: EKVX NSCLC
# HCT-116 colon = test system: HCT-116 colon
# HCT-15 colon = test system: HCT-15 colon
# HL-60(TB) leukemia = test system: HL-60(TB) leukemia
# HOP-62 NSCLC = test system: HOP-62 NSCLC
# HOP-92 NSCLC = test system: HOP-92 NSCLC
# HS 578T breast = test system: HS 578T breast
# HT29 colon = test system: HT29 colon
# IGROV1 ovarian = test system: IGROV1 ovarian
# K-562 leukemia = test system: K-562 leukemia
# KM12 colon = test system: KM12 colon
# LOX IMVI melanoma = test system: LOX IMVI melanoma
# M14 melanoma = test system: M14 melanoma
# MALME-3M melanoma = test system: MALME-3M melanoma
# MCF7 breast = test system: MCF7 breast
# MDA-MB-231 breast = test system: MDA-MB-231 breast
# MDA-MB-435 = test system: MDA-MB-435
# MDA-N = test system: MDA-N
# NCI-H23 lung = test system: NCI-H23 lung
# NCI-H460 lung = test system: NCI-H460 lung
# NCI-H522 lung = test system: NCI-H522 lung
# NCI/ADR-RES ovarian = test system: NCI/ADR-RES ovarian
# OVCAR-3 ovarian = test system: OVCAR-3 ovarian
# OVCAR-4 ovarian = test system: OVCAR-4 ovarian
# OVCAR-5 ovarian = test system: OVCAR-5 ovarian
# OVCAR-8 ovarian = test system: OVCAR-8 ovarian
# PC-3 prostate = test system: PC-3 prostate
# RPMI-8226 leukemia = test system: RPMI-8226 leukemia
# RXF 393 renal = test system: RXF 393 renal
# SF-268 CNS = test system: SF-268 CNS
# SF-295 CNS = test system: SF-295 CNS
# SF-539 CNS = test system: SF-539 CNS
# SK-MEL-2 melanoma = test system: SK-MEL-2 melanoma
# SK-MEL-28 melanoma = test system: SK-MEL-28 melanoma
# SK-MEL-5 melanoma = test system: SK-MEL-5 melanoma
# SK-OV-3 ovarian = test system: SK-OV-3 ovarian
# SN12C renal = test system: SN12C renal
# SNB-19 CNS = test system: SNB-19 CNS
# SNB-75 CNS = test system: SNB-75 CNS
# SR leukemia = test system: SR leukemia
# SW-620 colon = test system: SW-620 colon
# T-47D breast = test system: T-47D breast
# TK-10 renal = test system: TK-10 renal
# U251 CNS = test system: U251 CNS
# UACC-257 melanoma = test system: UACC-257 melanoma
# UACC-62 melanoma = test system: UACC-62 melanoma
# UO-31 renal = test system: UO-31 renal
# MOLT-4 leukemia = test system: MOLT-4 leukemia
# NCI-H226 lung = test system: NCI-H226 lung
smiles,measurement,setting,value
COc1ccc(C(=O)/C=C/c2ccc(Oc3cc(C(=O)/C=C/c4ccc(O)cc4)c(O)cc3OC)cc2)c(O)c1,TGI,786-0 renal,7.9 µM
same,TGI,A498 renal,6.26 µM
same,TGI,A549 NSCLC,> 100 µM
same,TGI,ACHN renal,6.85 µM
same,TGI,BT-549 breast,> 100 µM
same,TGI,CAKI-1 renal,68.4 µM
same,TGI,CCRF-CEM leukemia,> 100 µM
same,TGI,COLO 205 colon,15.4 µM
same,TGI,DU-145 prostate,> 100 µM
same,TGI,EKVX NSCLC,23.5 µM
same,TGI,HCT-116 colon,3.96 µM
same,TGI,HCT-15 colon,6.62 µM
same,TGI,HL-60(TB) leukemia,> 100 µM
same,TGI,HOP-62 NSCLC,49.2 µM
same,TGI,HOP-92 NSCLC,38.4 µM
same,TGI,HS 578T breast,> 100 µM
same,TGI,HT29 colon,5.13 µM
same,TGI,IGROV1 ovarian,6.13 µM
same,TGI,K-562 leukemia,> 100 µM
same,TGI,KM12 colon,7.83 µM
same,TGI,LOX IMVI melanoma,5.05 µM
same,TGI,M14 melanoma,61.2 µM
same,TGI,MALME-3M melanoma,59.8 µM
same,TGI,MCF7 breast,> 100 µM
same,TGI,MDA-MB-231 breast,9.8 µM
same,TGI,MDA-MB-435,> 100 µM
same,TGI,MDA-N,> 100 µM
same,TGI,NCI-H23 lung,18.1 µM
same,TGI,NCI-H460 lung,> 100 µM
same,TGI,NCI-H522 lung,10.5 µM
same,TGI,NCI/ADR-RES ovarian,11 µM
same,TGI,OVCAR-3 ovarian,32.2 µM
same,TGI,OVCAR-4 ovarian,18 µM
same,TGI,OVCAR-5 ovarian,26 µM
same,TGI,OVCAR-8 ovarian,9.83 µM
same,TGI,PC-3 prostate,> 100 µM
same,TGI,RPMI-8226 leukemia,4.7 µM
same,TGI,RXF 393 renal,6.96 µM
same,TGI,SF-268 CNS,> 100 µM
same,TGI,SF-295 CNS,40.2 µM
same,TGI,SF-539 CNS,5.26 µM
same,TGI,SK-MEL-2 melanoma,46 µM
same,TGI,SK-MEL-28 melanoma,8.15 µM
same,TGI,SK-MEL-5 melanoma,18.7 µM
same,TGI,SK-OV-3 ovarian,96.4 µM
same,TGI,SN12C renal,> 100 µM
same,TGI,SNB-19 CNS,> 100 µM
same,TGI,SNB-75 CNS,18.2 µM
same,TGI,SR leukemia,5.73 µM
same,TGI,SW-620 colon,> 100 µM
same,TGI,T-47D breast,66.9 µM
same,TGI,TK-10 renal,58 µM
same,TGI,U251 CNS,> 100 µM
same,TGI,UACC-257 melanoma,> 100 µM
same,TGI,UACC-62 melanoma,11.2 µM
same,TGI,UO-31 renal,11.3 µM
COc1cc(-c2nc3ccc(N4CCN(C)CC4)cc3[nH]2)c(OC)c2[nH]c(CO)nc12,TGI,786-0 renal,> 100 µM
same,TGI,A498 renal,> 100 µM
same,TGI,A549 NSCLC,> 100 µM
same,TGI,ACHN renal,> 100 µM
same,TGI,BT-549 breast,> 100 µM
same,TGI,CAKI-1 renal,> 100 µM
same,TGI,CCRF-CEM leukemia,44.5 µM
same,TGI,COLO 205 colon,> 100 µM
same,TGI,DU-145 prostate,> 100 µM
same,TGI,EKVX NSCLC,> 100 µM
same,TGI,HCT-116 colon,> 100 µM
same,TGI,HCT-15 colon,> 100 µM
same,TGI,HL-60(TB) leukemia,37.2 µM
same,TGI,HOP-62 NSCLC,> 100 µM
same,TGI,HOP-92 NSCLC,> 100 µM
same,TGI,HS 578T breast,> 100 µM
same,TGI,HT29 colon,> 100 µM
same,TGI,IGROV1 ovarian,> 100 µM
same,TGI,K-562 leukemia,> 100 µM
same,TGI,KM12 colon,> 100 µM
same,TGI,LOX IMVI melanoma,> 100 µM
same,TGI,M14 melanoma,> 100 µM
same,TGI,MALME-3M melanoma,> 100 µM
same,TGI,MCF7 breast,> 100 µM
same,TGI,MDA-MB-231 breast,> 100 µM
same,TGI,MDA-MB-435,> 100 µM
same,TGI,MDA-N,> 100 µM
same,TGI,MOLT-4 leukemia,> 100 µM
same,TGI,NCI-H226 lung,> 100 µM
same,TGI,NCI-H23 lung,> 100 µM
same,TGI,NCI-H460 lung,> 100 µM
same,TGI,NCI-H522 lung,> 100 µM
same,TGI,NCI/ADR-RES ovarian,> 100 µM
same,TGI,OVCAR-3 ovarian,> 100 µM
same,TGI,OVCAR-4 ovarian,> 100 µM
same,TGI,OVCAR-5 ovarian,> 100 µM
same,TGI,OVCAR-8 ovarian,> 100 µM
same,TGI,PC-3 prostate,> 100 µM
same,TGI,RPMI-8226 leukemia,> 100 µM
same,TGI,RXF 393 renal,> 100 µM
same,TGI,SF-268 CNS,> 100 µM
same,TGI,SF-295 CNS,> 100 µM
same,TGI,SF-539 CNS,> 100 µM
same,TGI,SK-MEL-2 melanoma,> 100 µM
same,TGI,SK-MEL-28 melanoma,> 100 µM
same,TGI,SK-MEL-5 melanoma,> 100 µM
same,TGI,SK-OV-3 ovarian,> 100 µM
same,TGI,SN12C renal,> 100 µM
same,TGI,SNB-19 CNS,> 100 µM
same,TGI,SNB-75 CNS,> 100 µM
same,TGI,SR leukemia,> 100 µM
same,TGI,SW-620 colon,> 100 µM
same,TGI,T-47D breast,> 100 µM
same,TGI,TK-10 renal,> 100 µM
same,TGI,U251 CNS,> 100 µM
same,TGI,UACC-257 melanoma,> 100 µM
same,TGI,UACC-62 melanoma,> 100 µM
same,TGI,UO-31 renal,> 100 µM
